Several values for one entry are separate records, joined by “and”; a condition that tells them apart may be missing. Equal entries are not always repeated. Where two headings read alike, the source gives them in different places. Ends that are not written are not given here.
Experiments:
E. coli (KpC+ 1812446) = conditions: MH broth, 12 h, 37° C.
E. coli (KpC1812446) [1] = conditions: Table 3, agent alone
[2] = test system: K. pneumoniae (KpC+ 1825971)
[3] = test system: K. pneumoniae (ATCC13883); conditions: Table 3, agent alone
[4] = test system: K. pneumoniae (KpC1825971); conditions: Table 3, agent alone
[5] = test system: P. aeruginosa (ATCC 27853); conditions: MH broth, 12 h, 37° C.
MRSA (3730529) = conditions: MH broth, 12 h, 37° C.
E. coli KpC+1812446 = format: in vivo, mice; conditions: infected Balb/C mice, 5 and 10 mg·Kg^−1
Description: Male Balb/C (18-20 g) mice from the Biotério Central do Campus da USP in Ribeirão Preto, São Paulo, were kept in groups of 5 per cage at 22° C. with normal cycles of light and free access to food and water. The care and use of the animals were approved by the Ethics Committee of Universidade Católica Dom Bosco number 019/2016. We assessed the ability of the peptides to protect the mice from lethal systemic infections induced with E. coli KpC+1812446. The mice (n=40) were randomly placed into eight groups of five mice each, and each mouse was injected intraperitoneally with 200 μL of saline solution containing 2×10^7 CFU of E. coli KpC+1812446. Intraperitoneal treatment with 5 or 10 mg·Kg^−1 of each peptide was initiated after one hour of infection and repeated at 24 h intervals for seven days^61. Gentamicin at 10 mg·Kg^−1 of body weight and normal saline were used as positive and negative controls, respectively.

[6] = test system: K. pneumoniae (KpC1825971); conditions: agent alone, BM2 minimal medium
E. coli (ATCC 25922) [7] = test system: E. coli (ATCC 25922)
E. coli (KpC1812446) [8] = conditions: agent alone, BM2 minimal medium
[9] = test system: E. coli (KpC+1812446) biofilm; conditions: Biofilm
[10] = test system: K. pneumoniae (ATCC13883); conditions: agent alone, BM2 minimal medium
[11] = test system: K. pneumoniae (ATCC 13883); conditions: MH broth, 12 h, 37° C.
E. coli (ATCC 25922) [12] = conditions: agent alone, BM2 minimal medium
[13] = test system: E. coli (KpC+1812446) planktonic cells; conditions: Planktonic
E. coli (ATCC25922) = conditions: Table 3, agent alone
[14] = Cu(II) supplemented medium (0.25 μM)

In the case of VIHKWKLFKKIGAVLKVL [VIH-CM15], the MIC (E. coli (KpC+ 1812446)) is reported as 4 µM, the MIC (E. coli (KpC1812446) [1]) is reported as 4 µM and the “MIC in Cu(II) supplemented medium” value [2, 14] is reported as 1 µM. For the same sequence, the MIC ([2]; MH broth, 12 h, 37° C.) was 1 µM, the MIC [3] was 30 µM and the MIC [4] was 8 µM. For the same sequence, the “MIC in Cu(II) supplemented medium” value (E. coli (KpC+ 2101123); [14]) was 2 µM, the MIC (E. coli (KpC+ 2101123); MH broth, 12 h, 37° C.) was 2 µM and the “MIC in Cu(II) supplemented medium” value (S. aureus (ATCC 25923); [14]) was 1 µM. It also gave an MIC (S. aureus (ATCC 25923); MH broth, 12 h, 37° C.) of 1 µM, an MIC [5] of 4 µM and an MIC (MRSA (3730529)) of 2 µM. For the same sequence, the in vivo toxicity (E. coli KpC+1812446) was “decreased the toxicity of CM15”, the MBIC [6] was 4 µM and the “MIC in Cu(II) supplemented medium” value (E. coli (ATCC 25922) [7]; [14]) was 1 µM. The MIC (E. coli (ATCC 25922) [7]; MH broth, 12 h, 37° C.) was 1 µM, the MBIC (E. coli (KpC1812446) [8]) was 8 µM and the “MIC, TETA” value (E. coli MG1655; cell-impermeable Cu(II) chelator triethylenetetramine (TETA) 200 μM) was 1 µM. For the same sequence, the “MIC, TTM” value (E. coli MG1655; cell-permeable Cu(II) chelator tetrathiolmolybdate (TTM) 200 μM) was 32 µM, the “MIC, No Chelator” value (E. coli MG1655; no chelator) was 0.5 µM and the FICI ([9]; peptide + AmP) was 1.5. The FICI ([9]; peptide + CHL) was 1.38, the FICI ([9]; peptide + MER) was 0.185 and 0.19 and the FICI ([9]; peptide + STR) was 1.0. For the same sequence, the FICI ([9]; peptide + TRI) was 1.0, the MBIC [10] was >30 µM and the MIC [11] was 1 µM. The MBIC (E. coli (ATCC 25922) [12]) was 4 µM, the FICI ([13]; peptide + AmP) was 2.0 and the FICI ([13]; peptide + CHL) was 1.0 and 1.002. The FICI ([13]; peptide + MER) was 1.0, the FICI ([13]; peptide + STR) was 1.29 and the FICI ([13]; peptide + TRI) was 1.0. For the same sequence, the MIC (E. coli (ATCC25922)) was 4 µM.

From patent publication US20260226105A1, “Antimicrobial And Antibiofilm Peptides Sequences With Metal-Binding Motifs” (The Trustee of the University of Pennsylvania, priority 2021, published 2026)
